EC90 data for 51 compounds are collected here from patent publication US9433621B2, “Substituted pyridine and pyrimidine derivatives and their use in treating viral infections” (Merck Sharp & Dohme Corp., priority 2010, dated 2016).

The subject of this assay is HCV replicon. Briefly: Cell-Based HCV Replicon Assay. The note with it: Hepatitis C virus; HCV Replicon assay, EC90 range, Table VI; read-out: EC90. The method in brief:
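EC50 and EC90 taken from sigmoid fits of ΔCT (5B minus GAPDH) as the concentrations raising ΔCT by 1 and 3.2 over baseline, via multiplex real-time RT-PCR on lysates after 3 days. Replicon cells at 5000/well; 10 two-fold dilutions from 25–1 μM, 0.5% DMSO, 10% FBS.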
For orientation: A replicon is a self-replicating genome or part of one, used to study replication in cells.
As for `Cc1nc(NCC2CC2)nc(N[C@@H]2C[C@H](C(C)(C)NS(C)(=O)=O)[C@@H](O)[C@H]2O)c1-c1nc2c(C)nccc2s1` [Example 5044], the EC90 was under 500 nM.
In the case of `Cc1nc(NCC(C)(C)C)nc(N[C@@H]2C[C@H](C(C)(C)NS(C)(=O)=O)[C@@H](O)[C@H]2O)c1-c1nc2c(C)nccc2s1` [Example 5045], the EC90 is under 500 nM.
As for `COC(=O)NC(C)(C)[C@H]1C[C@@H](Nc2nc(NCC3CC3)nc(C)c2-c2nc3c(C)nccc3s2)[C@H](O)[C@@H]1O` [Example 5046], the figure is under 500 nM; as for `COC(=O)NC(C)(C)[C@H]1C[C@@H](Nc2nc(NCC(C)(C)C)nc(C)c2-c2nc3c(C)nccc3s2)[C@H](O)[C@@H]1O` [Example 5047], under 500 nM; as for `Cc1nc(NC2CC2)nc(N[C@@H]2C[C@H](C(C)(C)NS(C)(=O)=O)[C@@H](O)[C@H]2O)c1-c1nc2c(C)nccc2s1` [Example 5048], under 500 nM.
As for `Cc1nc(NC2CCC2)nc(N[C@@H]2C[C@H](C(C)(C)NS(C)(=O)=O)[C@@H](O)[C@H]2O)c1-c1nc2c(C)nccc2s1` [Example 5049], the figure is under 500 nM; as for `COC(=O)NC(C)(C)[C@H]1C[C@@H](Nc2nc(NC3CC3)nc(C)c2-c2nc3c(C)nccc3s2)[C@H](O)[C@@H]1O` [Example 5050], under 500 nM.
Next, `Cc1nc(NCC2CC2)nc(N[C@@H]2C[C@H](C(C)(C)N=[N+]=[N-])[C@@H](O)[C@H]2O)c1-c1nc2c(C3CC3)nccc2s1` [Example 5051]: under 500 nM.
Regarding `CCS(=O)(=O)C(C)(C)[C@H]1C[C@@H](Nc2nc(NCC3CC3)nc(C)c2-c2nc3c(C)nccc3s2)[C@H](O)[C@@H]1O` [Example 5057], the EC90 was under 500 nM.
Turning to `CCS(=O)(=O)C(C)(C)[C@H]1C[C@@H](Nc2nc(NC3CCC3)nc(C)c2-c2nc3c(C)nccc3s2)[C@H](O)[C@@H]1O` [Example 5058], the EC90 was under 500 nM.
Next, `CCS(=O)(=O)C(C)(C)[C@H]1C[C@@H](Nc2nc(NCC3CC3)nc(C)c2-c2nc3c(C4CC4)nccc3s2)[C@H](O)[C@@H]1O` [Example 5059]: under 500 nM; `CCS(=O)(=O)C(C)(C)[C@H]1C[C@@H](Nc2nc(NC3CCC3)nc(C)c2-c2nc3c(C4CC4)nccc3s2)[C@H](O)[C@@H]1O` [Example 5060]: under 500 nM.
Consider `CCS(=O)(=O)C(C)(C)[C@H]1C[C@@H](Nc2nc(NCc3c(F)cc(F)cc3F)nc(C)c2-c2nc3c(C4CC4)nccc3s2)[C@H](O)[C@@H]1O` [Example 5061], for which the concentration for an effect of 90% (EC90) was under 500 nM.
As for `Cc1nc(NC2CCC2)nc(N[C@@H]2C[C@H](C(C)(C)S(C)(=O)=O)[C@@H](O)[C@H]2O)c1-c1nc2c(C)nccc2s1` [Example 5062], the figure is under 500 nM; as for `Cc1nc(NCc2c(F)cc(F)cc2F)nc(N[C@@H]2C[C@H](C(C)(C)S(C)(=O)=O)[C@@H](O)[C@H]2O)c1-c1nc2c(C)nccc2s1` [Example 5063], under 500 nM.
With `Cc1nc(NC2CCC2)nc(N[C@@H]2C[C@H](C(C)(C)S(C)(=O)=O)[C@@H](O)[C@H]2O)c1-c1nc2c(C3CC3)nccc2s1` [Example 5064], the EC90 is under 500 nM.
Take `Cc1nc(NCc2c(F)cc(F)cc2F)nc(N[C@@H]2C[C@H](C(C)(C)S(C)(=O)=O)[C@@H](O)[C@H]2O)c1-c1nc2c(C3CC3)nccc2s1` [Example 5065]: the EC90 is under 500 nM.
Next, `Cc1nc(NCC2CC2)nc(N[C@@H]2C[C@H](C(C)(C)S(=O)(=O)c3ccccc3)[C@@H](O)[C@H]2O)c1-c1nc2c(C)nccc2s1` [Example 5066]: under 500 nM; `Cc1nc(NCC(F)(F)F)nc(N[C@@H]2C[C@H](C(C)(C)S(=O)(=O)c3ccccc3)[C@@H](O)[C@H]2O)c1-c1nc2c(C)nccc2s1` [Example 5067]: under 500 nM.
As for `Cc1nc(NCC(C)(C)C)nc(N[C@@H]2C[C@H](C(C)(C)S(=O)(=O)c3ccccc3)[C@@H](O)[C@H]2O)c1-c1nc2c(C)nccc2s1` [Example 5068], the figure is under 500 nM; as for `Cc1nc(N)nc(N[C@@H]2C[C@H](C(C)(C)S(C)(=O)=O)[C@@H](O)[C@H]2O)c1-c1nc2c(C)nccc2s1` [Example 5069], under 500 nM; as for `Cc1nc(NCC2CC2)nc(N[C@@H]2C[C@H](C(C)(C)S(C)(=O)=O)[C@@H](O)[C@H]2O)c1-c1nc2c(C)nccc2s1` [Example 5070], under 500 nM.
As for `COCCNc1nc(C)c(-c2nc3c(C)nccc3s2)c(N[C@@H]2C[C@H](C(C)(C)S(C)(=O)=O)[C@@H](O)[C@H]2O)n1` [Example 5071], the figure is under 500 nM; as for `Cc1nc(N)nc(N[C@@H]2C[C@H](C(C)(C)S(C)(=O)=O)[C@@H](O)[C@H]2O)c1-c1nc2c(C3CC3)nccc2s1` [Example 5072], under 500 nM; as for `Cc1nc(NCC2CC2)nc(N[C@@H]2C[C@H](C(C)(C)S(C)(=O)=O)[C@@H](O)[C@H]2O)c1-c1nc2c(C3CC3)nccc2s1` [Example 5073], under 500 nM.
In the case of `Cc1nc(NCC(C)(C)C)nc(N[C@@H]2C[C@H](C(C)(C)S(C)(=O)=O)[C@@H](O)[C@H]2O)c1-c1nc2c(C3CC3)nccc2s1` [Example 5074], the EC90 was under 500 nM.
`COCCNc1nc(C)c(-c2nc3c(C4CC4)nccc3s2)c(N[C@@H]2C[C@H](C(C)(C)S(C)(=O)=O)[C@@H](O)[C@H]2O)n1` [Example 5075]: the EC90 was under 500 nM.
Next, `Cc1nc(N)nc(N[C@@H]2C[C@H](C(C)(C)S(=O)(=O)c3ccccc3)[C@@H](O)[C@H]2O)c1-c1nc2c(C)nccc2s1` [Example 5076]: under 500 nM; `COCCNc1nc(C)c(-c2nc3c(C)nccc3s2)c(N[C@@H]2C[C@H](C(C)(C)S(=O)(=O)c3ccccc3)[C@@H](O)[C@H]2O)n1` [Example 5077]: under 500 nM; `Cc1nc(NCC(F)(F)F)nc(N[C@@H]2C[C@H](C(C)(C)S(C)(=O)=O)[C@@H](O)[C@H]2O)c1-c1nc2c(C)nccc2s1` [Example 5078]: under 500 nM.
As for `Cc1nc(NCC(F)(F)F)nc(N[C@@H]2C[C@H](C(C)(C)S(C)(=O)=O)[C@@H](O)[C@H]2O)c1-c1nc2c(C3CC3)nccc2s1` [Example 5079], the figure is under 500 nM; as for `Cc1nc(NCC2CC2)nc(N[C@@H]2C[C@H](C(C)(C)S(=O)(=O)c3ccccc3)[C@@H](O)[C@H]2O)c1-c1nc2c(N)nccc2s1` [Example 5080], under 500 nM; as for `Cc1nc(N)nc(N[C@@H]2C[C@H](C(C)(C)S(=O)(=O)c3ccccc3)[C@@H](O)[C@H]2O)c1-c1nc2c(N)nccc2s1` [Example 5081], under 500 nM.
Next, `Cc1nc(NCc2c(F)cccc2F)nc(N[C@@H]2C[C@H](NC(=O)NCc3ccccc3F)[C@@H](O)[C@H]2O)c1-c1nc2c(C3CC3)nccc2s1` [Example 5082]: 500 to 5000 nM; `Cc1nc(NCc2c(F)cccc2F)nc(N[C@@H]2C[C@H](NC(=O)NC(C)C)[C@@H](O)[C@H]2O)c1-c1nc2c(C3CC3)nccc2s1` [Example 5083]: under 500 nM; `Cc1nc(NCc2c(F)cccc2F)nc(N[C@@H]2C[C@H](NC(=O)OCc3nccs3)[C@@H](O)[C@H]2O)c1-c1nc2c(C3CC3)nccc2s1` [Example 5084]: under 500 nM.
With `CCCNC(=O)N[C@H]1C[C@@H](Nc2nc(NCc3c(F)cccc3F)nc(C)c2-c2nc3c(C4CC4)nccc3s2)[C@H](O)[C@@H]1O` [Example 5085], the EC90 is under 500 nM.
With `CO[C@H](C)CNc1nc(C)c(-c2nc3c(C4CC4)nccc3s2)c(N[C@@H]2C[C@H](C(N)=O)[C@@H](O)[C@H]2O)n1` [Example 5086], the EC90 is under 500 nM.
As for `CCNC(=O)N[C@H]1C[C@@H](Nc2nc(NCC3CC3)nc(C)c2-c2nc3c(C4CC4)nccc3s2)[C@H](O)[C@@H]1O` [Example 5087], the EC90 is under 500 nM.
As for `Cc1nc(NCC2CC2)nc(N[C@@H]2C[C@H](NC(=O)NC(C)(C)C)[C@@H](O)[C@H]2O)c1-c1nc2c(C3CC3)nccc2s1` [Example 5088], the figure is under 500 nM.
As for `Cc1nc(N[C@H](C)C2CC2)nc(N[C@@H]2C[C@H](NC(=O)NC(C)(C)C)[C@@H](O)[C@H]2O)c1-c1nc2c(C3CC3)nccc2s1` [Example 5089], the EC90 is under 500 nM.
As for `Cc1nc(N[C@H](C)C2CC2)nc(N[C@@H]2C[C@H](NC(=O)NCc3ccc(C(F)(F)F)cc3)[C@@H](O)[C@H]2O)c1-c1nc2c(C3CC3)nccc2s1` [Example 5090], the figure is under 500 nM; as for `Cc1nc(NC(C)(C)C)nc(N[C@@H]2C[C@H](NC(=O)NC(C)(C)C)[C@@H](O)[C@H]2O)c1-c1nc2c(C3CC3)nccc2s1` [Example 5091], under 500 nM.
As for `Cc1nc(NCC2CC2)nc(N[C@@H]2C[C@H](NC(=O)Nc3ccccc3)[C@@H](O)[C@H]2O)c1-c1nc2c(C3CC3)nccc2s1` [Example 5092], the figure is under 500 nM.
Next, `Cc1nc(NCC2CC2)nc(N[C@@H]2C[C@H](NC(=O)NC3CCCC3)[C@@H](O)[C@H]2O)c1-c1nc2c(C3CC3)nccc2s1` [Example 5093]: under 500 nM; `CCNC(=O)N[C@H]1C[C@@H](Nc2nc(NC(C)(C)C)nc(C)c2-c2nc3c(C4CC4)nccc3s2)[C@H](O)[C@@H]1O` [Example 5094]: under 500 nM; `Cc1nc(NC(C)(C)C)nc(N[C@@H]2C[C@H](NC(=O)NC3CC3)[C@@H](O)[C@H]2O)c1-c1nc2c(C3CC3)nccc2s1` [Example 5095]: under 500 nM.
Turning to `Cc1nc(N[C@H](C)C2CC2)nc(N[C@@H]2C[C@H](NC(=O)N(C)C)[C@@H](O)[C@H]2O)c1-c1nc2c(C3CC3)nccc2s1` [Example 5096], the EC90 was under 500 nM.
As for `Cc1nc(NC(C)(C)C)nc(N[C@@H]2C[C@H](NC(=O)N(C)C)[C@@H](O)[C@H]2O)c1-c1nc2c(C3CC3)nccc2s1` [Example 5097], the figure is under 500 nM; as for `Cc1nc(NCC2CC2)nc(N[C@@H]2C[C@H](NC(=O)N(C)C)[C@@H](O)[C@H]2O)c1-c1nc2c(C3CC3)nccc2s1` [Example 5098], under 500 nM; as for `Cc1nc(NCC2CCC2)nc(N[C@@H]2C[C@H](NC(=O)NC(C)(C)C)[C@@H](O)[C@H]2O)c1-c1nc2c(C3CC3)nccc2s1` [Example 5100], under 500 nM.

A word on the EC90: it is the concentration at which the effect reaches the 90% level.
